Reference: US12459912B2 (priority 2020, dated 2025)
Several values for one entry are separate records, joined by “and”; a condition that tells them apart may be missing. Equal entries are not always repeated.

What was measured:
[1] = target: 5-Hydroxytryptamine (Serotonin) Receptor 2A (5-HT2A) (Homo sapiens, UniProt P28223); assay: 5-HT2A/Calcium Flux; assay type: cell-based; details: EC50 (μM)
[2] = target: AVPR1A (Arginine Vasopressin Receptor 1A) (Homo sapiens, UniProt P37288); assay: AVPR1A/Calcium Flux; assay type: cell-based
[3] = target: CNR1 (Cannabinoid Receptor 1) (Homo sapiens, UniProt P21554); assay: CNR1/cAMP; assay type: cell-based
[4] = target: DRD1 (Dopamine Receptor D1) (Homo sapiens, UniProt P21728); assay: DRD1/cAMP; assay type: cell-based
[5] = target: DRD2S (Dopamine Receptor D2) (Homo sapiens, UniProt P14416); assay: DRD2S/cAMP; assay type: cell-based
[6] = target: T1, nAChR(a4/b2) (Nicotinic acetylcholine Receptor α4 β2) (Homo sapiens, UniProt P17787+P43681); assay: cell-based; details: EC50 (μM)
T1 construct: expressed in transfected cells

[7] = target: T2, CAV1.2 (Voltage-gated L-type calcium channel) (Homo sapiens, UniProt Q13936); assay: CAV1.2/Ion Channel; assay type: cell-based
T2 construct: expressed in transfected cells

[8] = target: T3, DAT (Dopamine transporter) (Homo sapiens, UniProt Q01959); assay: DAT/Transporter (fluorescent substrate uptake); assay type: cell-based
T3 construct: expressed in transfected cells

[9] = target: T4, MAOA (Monoamine oxidase type A) (Homo sapiens, UniProt P21397); assay: MAOA/Enzymatic; assay type: biochemical
T4 construct: purchased Sigma

[10] = target: T5, PDE3A (cGMP-inhibited cyclic nucleotide phosphodiesterase 3A) (Homo sapiens, UniProt Q14432); assay: PDE3A/Enzymatic; assay type: biochemical
T5 construct: purchased Signal Chem

[11] = target: AR (Nuclear Hormone Androgen Receptor) (Homo sapiens, UniProt P10275); assay: AR/NHR Nuclear Translocation; assay type: cell-based
[12] = target: NAV1.5 (tetrodotoxin-resistant voltage-gated sodium channel) (Homo sapiens, UniProt Q14524); assay: cell-based

T1 sequence (P43681 29-627 limits assumed): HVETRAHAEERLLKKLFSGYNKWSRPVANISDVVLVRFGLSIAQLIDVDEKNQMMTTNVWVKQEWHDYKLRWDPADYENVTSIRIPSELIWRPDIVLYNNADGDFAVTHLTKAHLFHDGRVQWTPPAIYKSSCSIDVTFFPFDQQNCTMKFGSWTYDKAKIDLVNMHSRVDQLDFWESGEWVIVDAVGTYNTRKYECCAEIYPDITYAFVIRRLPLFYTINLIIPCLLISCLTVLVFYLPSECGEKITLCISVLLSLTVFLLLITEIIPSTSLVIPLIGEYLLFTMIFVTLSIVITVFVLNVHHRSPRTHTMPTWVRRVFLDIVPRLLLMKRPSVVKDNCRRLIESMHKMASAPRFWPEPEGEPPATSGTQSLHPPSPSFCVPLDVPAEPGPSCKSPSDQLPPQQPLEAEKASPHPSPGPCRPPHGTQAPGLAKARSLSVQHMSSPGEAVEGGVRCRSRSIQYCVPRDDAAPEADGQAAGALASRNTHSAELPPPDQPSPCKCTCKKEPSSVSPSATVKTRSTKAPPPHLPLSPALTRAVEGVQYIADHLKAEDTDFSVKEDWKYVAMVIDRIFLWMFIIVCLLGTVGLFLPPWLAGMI
T1 sequence (P17787 26-502): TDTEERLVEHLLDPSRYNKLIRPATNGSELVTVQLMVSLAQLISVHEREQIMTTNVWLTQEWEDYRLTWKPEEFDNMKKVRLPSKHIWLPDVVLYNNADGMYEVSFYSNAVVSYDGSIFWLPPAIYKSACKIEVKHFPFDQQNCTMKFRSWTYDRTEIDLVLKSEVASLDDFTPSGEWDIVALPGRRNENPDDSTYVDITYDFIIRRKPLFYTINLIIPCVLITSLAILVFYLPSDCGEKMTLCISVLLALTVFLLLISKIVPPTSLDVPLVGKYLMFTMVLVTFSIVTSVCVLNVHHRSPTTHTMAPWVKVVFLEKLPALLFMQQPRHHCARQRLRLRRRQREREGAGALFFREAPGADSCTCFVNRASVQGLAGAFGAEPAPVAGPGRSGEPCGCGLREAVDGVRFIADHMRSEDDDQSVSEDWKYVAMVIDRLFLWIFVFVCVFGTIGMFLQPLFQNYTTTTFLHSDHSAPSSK
T2 sequence (Q13936 whole entry): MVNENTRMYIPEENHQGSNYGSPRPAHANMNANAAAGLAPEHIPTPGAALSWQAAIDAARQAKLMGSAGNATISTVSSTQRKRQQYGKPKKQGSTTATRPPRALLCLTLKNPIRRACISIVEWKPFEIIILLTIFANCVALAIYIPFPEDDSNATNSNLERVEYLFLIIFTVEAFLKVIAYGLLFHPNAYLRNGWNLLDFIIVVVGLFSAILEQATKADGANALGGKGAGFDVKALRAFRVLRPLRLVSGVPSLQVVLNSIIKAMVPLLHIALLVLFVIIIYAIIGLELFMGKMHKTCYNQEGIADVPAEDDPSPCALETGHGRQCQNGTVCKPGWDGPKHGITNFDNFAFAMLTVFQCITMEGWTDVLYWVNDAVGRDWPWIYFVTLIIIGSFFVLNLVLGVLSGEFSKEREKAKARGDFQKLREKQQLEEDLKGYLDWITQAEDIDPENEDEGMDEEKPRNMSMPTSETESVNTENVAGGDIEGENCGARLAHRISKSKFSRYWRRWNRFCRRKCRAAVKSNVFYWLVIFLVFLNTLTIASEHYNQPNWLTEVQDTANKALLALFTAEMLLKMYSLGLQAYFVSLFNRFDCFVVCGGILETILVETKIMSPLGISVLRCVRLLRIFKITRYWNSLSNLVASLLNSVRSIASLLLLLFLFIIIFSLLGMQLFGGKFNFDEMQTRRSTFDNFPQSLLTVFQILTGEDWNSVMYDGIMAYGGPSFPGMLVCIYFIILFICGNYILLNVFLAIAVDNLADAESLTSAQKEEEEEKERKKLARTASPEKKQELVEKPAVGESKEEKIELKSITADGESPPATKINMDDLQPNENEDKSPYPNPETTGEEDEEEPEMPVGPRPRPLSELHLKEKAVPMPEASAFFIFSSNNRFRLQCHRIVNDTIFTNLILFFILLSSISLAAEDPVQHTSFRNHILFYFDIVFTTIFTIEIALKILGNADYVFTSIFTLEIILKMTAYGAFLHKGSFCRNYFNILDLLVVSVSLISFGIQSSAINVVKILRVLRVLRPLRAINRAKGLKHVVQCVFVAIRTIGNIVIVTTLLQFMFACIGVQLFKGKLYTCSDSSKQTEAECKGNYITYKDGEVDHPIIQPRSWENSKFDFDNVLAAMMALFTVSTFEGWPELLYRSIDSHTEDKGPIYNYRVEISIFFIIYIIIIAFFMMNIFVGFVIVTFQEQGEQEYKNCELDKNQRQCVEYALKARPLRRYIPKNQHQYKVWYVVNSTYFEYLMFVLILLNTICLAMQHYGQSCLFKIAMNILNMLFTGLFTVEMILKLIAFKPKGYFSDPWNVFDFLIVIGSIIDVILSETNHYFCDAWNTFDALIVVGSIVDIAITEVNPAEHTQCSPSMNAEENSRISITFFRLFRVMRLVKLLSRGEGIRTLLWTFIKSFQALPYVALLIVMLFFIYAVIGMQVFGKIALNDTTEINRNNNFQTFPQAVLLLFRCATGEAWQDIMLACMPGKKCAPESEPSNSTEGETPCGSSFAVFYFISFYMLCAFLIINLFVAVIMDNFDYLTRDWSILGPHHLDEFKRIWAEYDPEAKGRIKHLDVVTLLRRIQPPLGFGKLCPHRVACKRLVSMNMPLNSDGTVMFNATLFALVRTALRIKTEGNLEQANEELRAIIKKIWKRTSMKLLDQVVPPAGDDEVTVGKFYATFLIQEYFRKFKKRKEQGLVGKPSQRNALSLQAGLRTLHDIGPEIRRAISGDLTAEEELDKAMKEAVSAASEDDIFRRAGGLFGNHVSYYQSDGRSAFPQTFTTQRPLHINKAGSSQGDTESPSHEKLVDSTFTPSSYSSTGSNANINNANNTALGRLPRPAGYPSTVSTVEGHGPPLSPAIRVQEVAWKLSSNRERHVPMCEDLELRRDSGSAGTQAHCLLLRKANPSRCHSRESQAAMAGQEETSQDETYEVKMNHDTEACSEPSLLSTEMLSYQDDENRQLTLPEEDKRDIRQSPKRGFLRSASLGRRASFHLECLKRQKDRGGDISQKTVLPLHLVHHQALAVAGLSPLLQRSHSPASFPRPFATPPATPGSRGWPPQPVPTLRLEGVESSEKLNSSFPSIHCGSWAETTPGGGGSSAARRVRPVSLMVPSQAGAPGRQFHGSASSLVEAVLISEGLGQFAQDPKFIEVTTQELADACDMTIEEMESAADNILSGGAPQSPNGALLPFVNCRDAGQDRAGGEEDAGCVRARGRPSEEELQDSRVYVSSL
T2 sequence (Q08289 whole entry partner): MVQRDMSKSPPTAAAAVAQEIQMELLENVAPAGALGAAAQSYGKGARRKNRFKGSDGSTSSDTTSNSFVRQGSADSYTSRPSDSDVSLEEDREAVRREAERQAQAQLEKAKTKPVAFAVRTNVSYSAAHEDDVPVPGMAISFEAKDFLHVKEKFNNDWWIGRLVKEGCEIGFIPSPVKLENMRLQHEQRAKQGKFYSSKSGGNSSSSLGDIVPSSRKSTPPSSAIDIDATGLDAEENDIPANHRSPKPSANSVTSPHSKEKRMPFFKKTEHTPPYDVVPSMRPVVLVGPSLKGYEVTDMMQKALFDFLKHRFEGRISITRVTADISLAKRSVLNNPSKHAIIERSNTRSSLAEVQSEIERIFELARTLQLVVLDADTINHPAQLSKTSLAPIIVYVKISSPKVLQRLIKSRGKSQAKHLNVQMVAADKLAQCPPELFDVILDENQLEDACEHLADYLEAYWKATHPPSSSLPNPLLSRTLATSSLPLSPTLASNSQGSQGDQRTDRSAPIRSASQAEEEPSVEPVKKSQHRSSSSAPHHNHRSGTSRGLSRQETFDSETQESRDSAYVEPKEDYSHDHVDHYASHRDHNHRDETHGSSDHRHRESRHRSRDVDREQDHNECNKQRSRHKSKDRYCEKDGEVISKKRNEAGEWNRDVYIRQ
T2 sequence (P54289 25-956 partner limits assumed): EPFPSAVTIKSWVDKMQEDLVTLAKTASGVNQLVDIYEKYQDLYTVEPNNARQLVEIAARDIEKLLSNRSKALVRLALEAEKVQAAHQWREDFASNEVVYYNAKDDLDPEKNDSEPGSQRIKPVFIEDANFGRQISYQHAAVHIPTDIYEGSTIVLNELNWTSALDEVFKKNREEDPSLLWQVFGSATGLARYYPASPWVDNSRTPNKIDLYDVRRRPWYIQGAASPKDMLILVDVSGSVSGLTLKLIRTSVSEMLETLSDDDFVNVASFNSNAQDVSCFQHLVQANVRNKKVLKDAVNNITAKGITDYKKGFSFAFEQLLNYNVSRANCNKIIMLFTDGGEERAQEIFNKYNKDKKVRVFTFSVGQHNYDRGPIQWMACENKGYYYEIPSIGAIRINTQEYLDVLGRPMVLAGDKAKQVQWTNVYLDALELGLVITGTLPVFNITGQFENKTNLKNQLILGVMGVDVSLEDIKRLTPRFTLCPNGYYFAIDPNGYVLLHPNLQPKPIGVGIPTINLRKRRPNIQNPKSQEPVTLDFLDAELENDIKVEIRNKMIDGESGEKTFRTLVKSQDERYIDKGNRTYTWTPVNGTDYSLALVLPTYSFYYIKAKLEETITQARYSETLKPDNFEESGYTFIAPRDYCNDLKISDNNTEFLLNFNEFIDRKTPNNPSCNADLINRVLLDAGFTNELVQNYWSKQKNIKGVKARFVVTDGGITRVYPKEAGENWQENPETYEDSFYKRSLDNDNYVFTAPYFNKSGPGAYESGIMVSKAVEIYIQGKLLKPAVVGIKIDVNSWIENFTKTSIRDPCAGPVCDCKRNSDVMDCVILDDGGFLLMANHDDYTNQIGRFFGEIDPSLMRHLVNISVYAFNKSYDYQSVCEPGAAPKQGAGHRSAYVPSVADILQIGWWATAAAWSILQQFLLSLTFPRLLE
T2 sequence (P54289 957-1103 partner limits assumed): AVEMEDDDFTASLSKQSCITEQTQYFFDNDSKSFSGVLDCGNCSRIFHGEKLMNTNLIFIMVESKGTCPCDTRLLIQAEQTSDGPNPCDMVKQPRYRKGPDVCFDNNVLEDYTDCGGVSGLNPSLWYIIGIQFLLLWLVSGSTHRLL

Work on `CNC(C)Cc1ccc2ccsc2c1` (stereo not shown) [drawing 522] yielded an EC50 ([1]; agonist) of 0.959 µM, an EC50 ([1]; antagonist) of 1.72 µM and an EC50 [2] of over 10 µM. The EC50 [3] was over 10 µM, the EC50 [4] was over 10 µM and the EC50 [5] was over 10 µM. The EC50 [6] was > 10 µM and 4.44 µM, the EC50 [7] was over 10 µM and the EC50 [8] was 320 nM. It also gave an EC50 [9] of 945 nM, an EC50 [10] of over 10 µM and an EC50 [11] of over 10 µM. For the same compound, the EC50 [12] was over 10 µM.
